# Source: patent US6605639B1, “Ligands of nuclear receptor” (Nuclear Receptor Research, Ltd., priority 1998, dated 2003)
# Several values for one entry are separate records, joined by “and”; a condition that tells them apart may be missing. Equal entries are not always repeated.
# How the values were obtained:
# human RXRα = target: T1, human RXRα (Homo sapiens, UniProt P19793); assay: RXR reporter gene (luciferase) transfer assay in COS-1 cells; assay type: cell-based; conditions: for degree of increase in the luciferase activity, RXR vector: control lot = 1
# T1 construct: expressed in transfected cells; host or cells: COS-1 cells
# T1 sequence (P19793 1-462): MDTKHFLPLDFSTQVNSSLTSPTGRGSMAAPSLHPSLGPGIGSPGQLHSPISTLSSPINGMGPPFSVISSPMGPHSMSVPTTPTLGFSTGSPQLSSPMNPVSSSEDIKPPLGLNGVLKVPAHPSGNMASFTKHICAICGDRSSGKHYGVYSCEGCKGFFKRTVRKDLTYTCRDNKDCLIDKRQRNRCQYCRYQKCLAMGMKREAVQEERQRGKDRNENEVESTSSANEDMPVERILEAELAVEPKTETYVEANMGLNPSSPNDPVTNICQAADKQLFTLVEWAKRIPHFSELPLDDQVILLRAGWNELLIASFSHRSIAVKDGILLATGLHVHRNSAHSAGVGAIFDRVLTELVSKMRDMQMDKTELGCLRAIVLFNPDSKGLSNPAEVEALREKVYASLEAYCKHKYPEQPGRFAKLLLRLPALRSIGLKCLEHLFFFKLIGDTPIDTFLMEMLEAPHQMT
# Description: A plasmid containing a reporter gene regulated in expression by RXR response element and an RXRα expression plasmid were transferred into COS-1 cells. Then these cells were treated with the compounds of the present invention such as ascochlorin.
# Plasmids were transferred into COS-1 cells. Gene transfer was carried out in a conventional manner with the use of Lipofect AMINE reagent (Life Technologies). 1×10^5 cells were dispersed in 2 ml of Dulbecco's modified Eagle medium (DMEM) containing 10% of fetal calf serum and poured into a 35 mm Petri dish. After culturing in a CO2 incubator for 17 hours, the medium was removed and the cells adhering to the Petri dish were washed with phosphate-buffered saline (PBS). Then gene transfer was carried out by using Lipofect AMINE reagent. Namely, 500 ml of a minimum serum medium OptiMEM (Life Technologies) containing […] of a plasmid containing a luciferase gene under the regulation in expression by RXR response element (PRXRL: RXRE-SV40 luciferase; a reporter gene plasmid wherein RXRE has been ligated to SV40 promoter and luciferase cDNA, under the regulation in expression thereby, has been located downstream thereof); […] of an RXRα expression plasmid (pRXRα; a plasmid wherein human RXRα CDNA has been ligated to the downstream of a cytomegalovirus promoter to express human RXRα in mammalian cells); and 2 mg of a β-galactosidase gene plasmid to assess the gene transfer ratio (pCH110; Pharmacia) were pre-mixed with 500 ml of OptiMEM containing 50 ml of Lipofec AMINE, and the resultant mixture was maintained at room temperature for 15 minutes. 100 ml of this liquid mixture was mixed with 400 ml of OptiMEM, and the medium mixture was divided to the Petri dish. After maintaining in a CO2 incubator at 37° C. for 3 hours, the gene transfer medium was sucked off from the Petri dish and DMEM medium containing a test substance and 10% of serum (activated carbon-treated) was added thereto followed by culturing at 37° C. for 20 hours. […] Further, dimethyl sulfoxide (final concentration: 0.1%) was added as the solvent for the test substance.
# After sucking off the medium from the Petri dish, […] of a cultured cell lysing solution (25 mM Tris phosphate buffer (pH 7.8), 2 mM 1,2-diaminocyclohexane-N, N,N′,N′-tetraacetate, 10% glycerol, 1% Triton X-100) was added and the cells were peeled off with a rubber policeman and collected. After completely disrupting the cells by freezing and melting, the cells were centrifuged at 4° C. (15,000 rpm, 2 min) and the supernatant thus obtained was employed as a sample for measurement. To 20 ml of the supernatant, 100 ml of a luciferase substrate solution (2.14 mg of Co-A, 100 ml of 470 mM D-Luciferin, 200 ml of 530 mM ATP, 2 ml of DTT-Tricine buffer (pH 7.8)) was added and the fluorescence intensity was measured with a luminometer (ATTO Luminosensor AB-2000). To measure the β-galactosidase for determining the gene transfer efficiency, using a Luminescent β-galactosidase detection kit II (Clontech), fluorescence intensity was measured by a luminometer.
# male ICR and ddY mice = assay: Serum total cholesterol lowering effect in mice; assay type: in vivo, mouse; conditions: 8 days; for Serum total cholesterol, % change: vs control; for Serum total cholesterol: Mean±SE
# Source text: Effect of serum cholesterol lowering agents varies among animals. Namely, some agents which are effective on a certain animal exert […] on others. For example, compactin, which is an HMG CoA reductase inhibitor, cannot lower the serum total cholesterol level when administered to rodents such as rat or mouse. This is because even though HMG CoA reductase is inhibited in the rodent liver, the enzyme is biosynthesized in an amount in excess of that for compensating the inhibition so that the inhibitory effect is negated. Accordingly, it is favorable to calibrate the effect of lowering serum total cholesterol level in as many animals as possible. Concerning the effect of the compounds of the present invention on the serum total cholesterol level, an assay was made with the use of mice. After adding these compounds to a standard powdery feed for rat and mouse, the resultant mixtures were molded into pellets and given for 8 days to male ICR and ddY mice aged 5 weeks. In the afternoon of the day 8, the blood of each animal was collected from the heart and the total cholesterol in the serum was determined. The doses were determined as the maximum dose, in which body weight gain was not suppressed after orally administering for 1 week, and as the ¼ dose thereof.
# Each value is represented in Mean±SE (n=10). a) In the case of Compound-1, the control group consisted of 23 animals while the 0.04% and 0.01% groups each consisted of 12 animals.
Molecule,fold increase in luciferase reporter activity (control = 1) (human RXRα; 10^−6 M),"degree of increase in the luciferase activity, RXR vector (human RXRα; 10^−6 M)","Serum total cholesterol, % change (male ICR and ddY mice; 0.01% in feed)",Serum total cholesterol (male ICR and ddY mice; 0.01% in feed),"Serum total cholesterol, % change (male ICR and ddY mice; 0.04% in feed) [%]",Serum total cholesterol (male ICR and ddY mice; 0.04% in feed),fold increase in luciferase reporter activity (control = 1) (human RXRα; 5 × 10^−6 M),"degree of increase in the luciferase activity, RXR vector (human RXRα; 5 × 10^−6 M)",fold increase in luciferase reporter activity (control = 1) (human RXRα; 10^−5 M),"degree of increase in the luciferase activity, RXR vector (human RXRα; 10^−5 M)",fold increase in luciferase reporter activity (control = 1) (human RXRα; 4 × 10^−7 M),"degree of increase in the luciferase activity, RXR vector (human RXRα; 4 × 10^−7 M)"
"3-[5-[l(R),2(S),6(S)-trimethyl-3-oxocylohexyl]-3-methyl-2,4-pentadienyl]-2,4-dihydroxy-5-chloro-6-methylbenzaldehyde [Compound-1]",2.03,61,−11%,138 ± 5.1 mg/dL,−15,131 ± 6.7 mg/dL,–,–,–,–,–,–
"COc1c(Cl)c(C)c(C=O)c(O)c1C/C=C(C)/C=C/[C@@]1(C)[C@H](C)CCC(=O)[C@@H]1C [Compound-6, 4-O-methylASC]",–,–,−16% and −13%,93 ± 4.4 mg/dL and 103 ± 1.2 mg/dL,–,92 ± 3.3 mg/dL and 75 ± 4.4 mg/dL,1.57,55,–,–,–,–
"CC(/C=C/[C@@]1(C)[C@H](C)CCC(=O)[C@@H]1C)=C\Cc1c(O)c(C=O)c(C)c(Cl)c1OCC(=O)O [Compound-14, 4-O-carboxymethylASC]",–,–,−7% and −13%,109 ± 2.8 mg/dL and 174 ± 4.9 mg/dL,–,144 ± 7.2 mg/dL and 100 ± 4.4 mg/dL,–,–,1.23,47,–,–
CC(/C=C/C1(C)C(C)C=CC(=O)C1C)=C\Cc1c(O)c(Cl)c(C)c(C=O)c1O (stereo not shown) [Compound-26],–,–,−10%,132 ± 6.1 mg/dL,−24,110 ± 5.4 mg/dL,–,–,–,–,1.91,63
